A word on the LD50: it is the dose at which mortality reaches 50%. Low readings indicate a more toxic substance, high ones a less toxic substance.

In data set [1] the test system is Mice L-M cells. Put plainly: Inducing activities of TNF in vitro (cytotoxicity of serum from treated mice). The settings on record: Mus musculus, iv; 10 μg via tail vein, serum 90 mins after; L-M cells 48 hrs; read-out: Cytotoxicities. The data set is classed as cell-based, mice (ICR male mice serum; mice L-M cells). The method, then: (2) Inducing activities of TNF in vitro
Inducing activity of TNF in vitro was measured by the following test system.
Corye parvum (manufactured by Ribi Immuno Chem. Research Inc.) was administered in ICR male mice 6-weeks old through the tail vein as priming agent. Ten days later, the compounds of the present invention (10 μg) were administered through tail vein as eliciting agent. 90 mins after the administration, blood was collected from the hearts, and blood serums were separated.
Mice L-M cells (10^4 /100 μl/well) suspended in a mixture of the diluted serum solution (100 μl/well) and RPMI 1640 cultivating solution (10% FEBS and 0.2% glucose; manufactured by Nissui Pharmaceutical Co.) were cultivated in an atmosphere of a mixed gas of 5% CO2 -[…], for 48 hrs at 37° C., after adding ^3 H-tymidine taken (0.5 μCi/20 μl/well). Amounts of ^3 H-tymidine taken into cells during the cultivation were measured.
Inducing activities of TNF were measured by cytotoxicity calculated as follows: [formula]

Data set [2] deals with Meth-A sarcoma. Description: Anti-tumor effect on Balb/C mice inoculated with Meth-A Sarcoma. The data set is classed as in vivo, female Balb/C mice. To be noted: for Apperarent tumor weight: g ± standard error; for Survival period: iv tail vein Day 7, 9, 12, day ± standard error. The method, then: (1) Anti-tumor effect on Balb/C mice inocudlated with Meth-A Sarcoma
Anti-tumor effect was measured by the following procedure.
Tumor cells which had been maintained in ascites of Balb/C mouse generation after generation was used. One group is consisting of eight female Balb/C mice. Meth-A sarcoma tumor (1×10^5 cells/0.05 ml) was inoculated into left side of female mice of 7-week old (body weight: 18-20 g). Seven day after, when tumor size came to 6~9 mm, test compound was administered into tail vein first (day 7) and then administered two times (total three times: Day 7, 9, 12). Dose of test compound is 3 and 10 mg/kg or 3, 10 and 30 mg/kg and each test compound solution volume was 10 ml/kg. Anti-tumor effect is estimated by survival period (from inoculation day to death day) and tumor apparent weight. [formula] Test results about survival period and tumor appearent weight are shown in the following Tables II(1) and II(2), respectively.
In experiments, statistic analysis was done with unpaired Student's t(two tailed)-test. […] P values lower than 0.05 were judged to be significant.

Data set [3] relates to lympha cells. Put plainly: Mitogenic activity in vitro (Blastogenic index). The data set is classed as cell-based, C3H/He male mice. The settings on record: Mus musculus, Lymphocyte. As to the method: (1) Mitogenic activity in vitro
Mitogenic activity means activity of activating mitogenic cell division, and in this test system, the amount of tymidine taken into lympha cells was measured and a ratio determined against a blank control call (Blastogenic index) was calculated.
For example, adding the compound prepared in example 1(c) to the test system induced 30 times the amount of tymidine taken into the lympha cells versus the control.
The amounts were measured by density of a radiolabel.
Mytogenic activity in vitro was measured by the following method (See Procedure Method of Immunoexperiment pp 315 published by Japan Immunology Society).
C3H/He male mice 6 weeks old were killed by bloodletting, and their spleens were isolated and homogenized. Homogenizing liquids were filtered with gauze, and suspending cells were prepared with PBS solution. After washing, lymphacytes fractions were gathered with lympholight M. Lymphacytes were suspended in RPMI 1640 cultivation solution (10% FEBS), and the solution was divided into 5×10^5 cells/180 μl/wells. Ten times concentration of the terminal concentration (1 μg/ml) of the compounds of the present invention were added with 20 μl portions to each of the wells.
After cultivation, ^3 H-tymidine 0.5 μCi/20 μl was added to the each cells. Cultivation was continued at 37° C. for another 24 hrs, and amounts of ^3 H-tymidine taken into the cells were measured. Mitogenic activities were calculated as by Blastogenic index in as follows. [formula]

The nature of data set [4]: Acute toxicity (LD50), intravenous in mice. To be noted: mouse, in vivo. As to the method: For example, the values of LD50 of the compound prepared in example 1(c) was more than 300 mg/kg animal body weight by intravenous administration in mice.
The mark [5] stands for this setting: terminal concentration 1 μg/ml, ratio of 3H-tymidine uptake vs blank control, read-out: Blastgenic Index.

Structures are written as SMILES. Where two headings read alike, the source gives them in different places.

On to `CCCCCCCCCCC[C@@H](CC(=O)N[C@H]1C(O)O[C@H](CO)[C@@H](OS(=O)(=O)O)[C@@H]1OC(=O)CCCCCCCCc1ccccc1)OC(=O)CCCCCCCCc1ccccc1` (stereo partly drawn) [1(c), 2-deoxy-2-[3S-(9-phenylnonanoyloxy)tetradecanoyl]amino-3-O-(9-phenylnonanoyl)-4-O-sulfo-D-glucopyranose], for which the cytotoxicity at 0.01 mg in data set [1] is 86%. Also, the Apperarent tumor weight in data set [2] (3 mg/kg iv, Day 7) was determined as 0.200 ± 0.074 g; in data set [2] (3 mg/kg iv, Day 10), 0.240 ± 0.118 g; in data set [2] (3 mg/kg iv, Day 13), 0.314 ± 0.206 g; in data set [2] (3 mg/kg iv, Day 16), 0.580 ± 0.412 g; in data set [2] (10 mg/kg iv, Day 7), 0.199 ± 0.044 g; in data set [2] (10 mg/kg iv, Day 10) it was 0.156 ± 0.084 g. Also, the Apperarent tumor weight in data set [2] (10 mg/kg iv, Day 13) is recorded as 0.120 ± 0.099 g; in data set [2] (10 mg/kg iv, Day 16) it was 0.208 ± 0.253 g. For the same compound, in data set [2] (at the dose of 10 mg/kg), the “effect on prolongation of life” value is recorded as “significant effect”. Besides, in data set [2] (at the dose of 10 mg/kg), the “effect on tumore regression” value was “significant effect”. The Survival period in data set [2] (dose 3 (mg/kg)) came to 46.8 ± 6.3 days; in data set [2] (dose 10 (mg/kg)), 62.8 ± 18.8 days. Moreover, the fold induction at 1 µg/mL came out at 30 in data set [3] (compound added to the test system, 1 μg/ml, read-out: amount of tymidine taken into the lympha cells versus the control) and 30 in data set [3] (setting [5]). Moreover, the LD50 in data set [4] is over 300 mg/kg.
On to `CCCCCCCCCCC[C@@H](CC(=O)N[C@H]1C(O)O[C@H](CO)[C@@H](OS(=O)(=O)O)[C@@H]1OC(=O)CCCCCCCCCc1ccccc1)OC(=O)CCCCCCCCCc1ccccc1` (stereo partly drawn) [1(d), 2-deoxy-2-[3S-(10-phenyldecanoyloxy)tetradecanoyl]amino-3-O-(10-phenyldecanoyl)-4-O-sulfo-D-glucopyranose], for which the cytotoxicity at 0.01 mg in data set [1] stood at 95%. Moreover, the fold induction at 1 µg/mL in data set [3] (setting [5]) came out at 28.
The corresponding values for `CCCCCCCCCCC[C@H](CC(=O)N[C@H]1C(O)O[C@H](CO)[C@@H](OS(=O)(=O)O)[C@@H]1OC(=O)CCCCCCCCc1ccccc1)OC(=O)CCCCCCCCc1ccccc1` (stereo partly drawn) [1(h), 2-deoxy-2-[3R-(9-phenylnonanoyloxy)tetradecanoyl]amino-3-O-(9-phenylnonanoyl)-4-O-sulfo-D-glucopyranose] are 81% and 37.
`CCCCCCCCCCCCCC(=O)OC(CCCCCCCCCCC)CC(=O)N[C@H]1COC[C@@H](OS(=O)(=O)O)[C@@H]1OC(=O)CCCCCCCCCCCCC` (single isomer, unassigned) [3(b), 2-deoxy-2-[3-tetradecanoyloxytetradecanoyl]amino-3-O-tetradecanoyl-4-O-sulfo-1,5-anhydro-D-xylitol]: the cytotoxicity at 0.01 mg in data set [1] was 30.2%. For the same compound, the fold induction at 1 µg/mL in data set [3] (setting [5]) came to 13.7.
The corresponding values for `O=C(C[C@H](CCCCCCc1ccccc1)OC(=O)CCCCCCCCc1ccccc1)N[C@H]1C(O)O[C@H](CO)[C@@H](OS(=O)(=O)O)[C@@H]1OC(=O)CCCCCCCCc1ccccc1` (stereo partly drawn) [1(r), 2-deoxy-2-[3S-(9-phenylnonanoyloxy)-9-phenylnonanoyl]amino-3-O-(9-phenylnonanoyl)-4-O-sulfo-D-glucopyranose] are 86% and 17.
`CCCCCCCCCCCCCC(=O)O[C@H]1[C@H](OS(=O)(=O)O)[C@@H](CO)OC(O)[C@@H]1NC(=O)c1ccc(OCCCCCCCCCC)c(OCCCCCCCCCC)c1` (stereo partly drawn) [Example 4, 2-deoxy-2-(3,4-didecyloxybenzoyl)amino-3-O-tetradecanoyl-4-O-sulfo-D-glycopyranose]: in data set [1], the cytotoxicity at 0.01 mg is 20%. In addition, the Apperarent tumor weight is on record as 0.212 ± 0.042 g in data set [2] (3 mg/kg iv, Day 7); 0.469 ± 0.169 g in data set [2] (3 mg/kg iv, Day 10); 0.650 ± 0.162 g in data set [2] (3 mg/kg iv, Day 13); 1.004 ± 0.434 g in data set [2] (3 mg/kg iv, Day 16); 0.205 ± 0.022 g in data set [2] (10 mg/kg iv, Day 7); 0.361 ± 0.056 g in data set [2] (10 mg/kg iv, Day 10). Also, the Apperarent tumor weight in data set [2] (10 mg/kg iv, Day 13) was 0.455 ± 0.116 g; in data set [2] (10 mg/kg iv, Day 16) it was 0.846 ± 0.233 g. The “effect on prolongation of life” value in data set [2] (at the dose of 3 mg/kg) was “significant effect”. Also, the “effect on tumore regression” value in data set [2] (at the dose of 3 mg/kg) is on record as “significant effect”. Also, the results for the Survival period in data set [2] (dose 3 (mg/kg)) and in data set [2] (dose 10 (mg/kg)) were 48.5 ± 8.7 days and 46.6 ± 7.2 days, respectively. For the same compound, in data set [3] (setting [5]), the fold induction at 1 µg/mL came to 27.7.
Take `CCCCCCCCCCCC(CC(=O)N[C@H]1COC[C@@H](OS(=O)(=O)O)[C@@H]1OC(=O)CCCCCCCCc1ccccc1)OC(=O)CCCCCCCCc1ccccc1` (single isomer, unassigned) [Example 3, 2-deoxy-2-[3-(9-phenylnonanoyl)oxytetradecanoyl]amino-3-O-(9-phenylnonanoyl)-4-O-sulfo-1,5-anhydro-D-xylitol]: the cytotoxicity at 0.01 mg in data set [1] was determined as 50.7%.
For `CCCCCCCCCCC[C@@H](CC(=O)N[C@H]1C(O)O[C@H](CO)[C@@H](OS(=O)(=O)O)[C@@H]1OC(=O)CCCCCCCCc1ccc(Cl)cc1)OC(=O)CCCCCCCCc1ccc(Cl)cc1` (stereo partly drawn) [1(j), 2-deoxy-2-[3S-[9-(4-chlorophenyl)nonanoyloxy]tetradecanoyl]amino-3-O-[9-(4-chlorophenyl)nonanoyl]-4-O-sulfo-D-glucopyranose], in data set [1], the cytotoxicity at 0.01 mg is 69%. Further, in data set [3] (setting [5]), the fold induction at 1 µg/mL was found to be 25.
As to `CCCCCCCCCCC[C@H](CC(=O)N[C@H]1CO[C@H](CO)[C@@H](OS(=O)(=O)O)[C@@H]1OC(=O)CCCCCCCCc1ccccc1)OC(=O)CCCCCCCCc1ccccc1` [1(s), 2-deoxy-2-[3R-(9-phenylnonanoyloxy)tetradecanoyl]amino-3-O-(9-phenylnonanoyl)-4-O-sulfo-1,5-anhydro-D-glucitol], the cytotoxicity at 0.01 mg in data set [1] was 100%. Besides, the fold induction at 1 µg/mL in data set [3] (setting [5]) came to 58.

The values are drawn from patent USRE36385E, “Glucopyranose derivatives” (Ono Pharmaceutical Co., Ltd., priority 1985, dated 1999).
